Read-outs that look alike come from different tables or passages of the source.
Columns and labels:
Drosophila OR13a = molecular target: T1, Drosophila OR13a (Drosophila melanogaster, UniProt Q9VXL0); assay: Calcium ion fluorescence (GCaMP6) assay, OR13a stable HEK293 cell line; format: cell-based; settings: for DF norm AVERAGE OR13a: normalized fluorescence change, values below 0.05 threshold given as 0
T1 construct: expressed in transfected cells
T1 sequence (Q9VXL0 1-418): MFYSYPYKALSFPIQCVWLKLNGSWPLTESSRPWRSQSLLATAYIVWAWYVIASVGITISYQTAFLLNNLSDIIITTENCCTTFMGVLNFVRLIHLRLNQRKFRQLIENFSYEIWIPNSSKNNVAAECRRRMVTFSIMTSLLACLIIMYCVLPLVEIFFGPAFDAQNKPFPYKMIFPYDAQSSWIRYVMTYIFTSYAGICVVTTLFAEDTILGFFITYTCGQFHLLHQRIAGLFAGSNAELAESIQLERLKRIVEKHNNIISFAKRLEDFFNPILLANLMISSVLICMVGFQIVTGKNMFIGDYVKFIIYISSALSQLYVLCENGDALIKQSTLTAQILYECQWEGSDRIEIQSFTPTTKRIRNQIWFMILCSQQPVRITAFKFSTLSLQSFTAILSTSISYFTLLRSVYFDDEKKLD
T1 sequence (Q9VNB5 1-486 partner): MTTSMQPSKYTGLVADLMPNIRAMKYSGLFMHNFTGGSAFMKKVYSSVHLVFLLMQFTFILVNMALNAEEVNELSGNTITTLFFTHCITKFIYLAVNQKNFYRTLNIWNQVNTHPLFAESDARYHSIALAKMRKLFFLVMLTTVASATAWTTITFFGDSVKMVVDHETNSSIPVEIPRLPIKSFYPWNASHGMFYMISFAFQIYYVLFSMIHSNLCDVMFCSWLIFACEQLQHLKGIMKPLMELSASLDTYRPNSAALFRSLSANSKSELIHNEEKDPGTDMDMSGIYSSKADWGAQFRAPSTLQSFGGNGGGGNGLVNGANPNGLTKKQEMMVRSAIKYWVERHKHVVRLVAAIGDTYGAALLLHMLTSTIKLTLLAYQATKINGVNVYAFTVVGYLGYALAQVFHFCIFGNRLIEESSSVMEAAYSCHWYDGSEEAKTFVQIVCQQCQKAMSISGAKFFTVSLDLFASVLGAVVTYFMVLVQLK
Procedure: (§1) These VUAA1 normalized ∆F values were used to compare the different receptors and ligands.
(§2) The concentration-dependent effect of the reference ligands on their cognate cell lines was examined in more detail. Twelve different ligand concentrations were measured on each cell line in an overall 0.01 μM to 100 μM concentration range with 5 repetitions with three technical replicates each time.
(§3) Twelve thousand to 18,000 cells were plated into each well of a black wall, transparent bottom 384-well microplate (Greiner) 48 h or 72 h before the measurements and were simultaneously treated with 1 μg/mL doxycycline. […] The plate has 24 columns, thus we could record responses in up to eight different cell lines in each plate. On the day of the experiment, the growth medium was replaced with 20 µL assay buffer/well (140 mM NaCl, 5 mM KCl, 2 mM CaCl2, 1 mM MgCl2, 5 mM HEPES-Na, 20 mM glucose, pH 7.3, 340 mOsm). […] Baseline fluorescence (F0) was recorded for 5 s, after which 7 µL VOC buffer (140 mM NaCl, 5 mM KCl, 2 mM CaCl2, 1 mM MgCl2, 5 mM HEPES-Na, 31 mM glucose, 0.1% DMSO, pH 7.3, 340 mOsm) was injected into each well in one row and the fluorescence response was recorded for an additional 30 s, at a rate of one read/sec. VOC solutions (VOC buffer with 4× concentration of the final measured VOC concentration, 9 µL/well was injected) were measured on the same wells in a second round with the same protocol. Each individual concentration of a specific VOC sample was recorded in three wells for the same cell line on the same microplate. The raw data were exported in xls file format, F0 and FMAX values, and the fluorescence intensity changes (∆F) were calculated in Excel (Microsoft) (Supplementary file Data summary.xlsx) using the following equation: ΔF=FMAX-F0/F0 (see also Fig. 1C). On each plate, we recorded the response of each cell line to 50 µM VUAA1. The average of these ∆F values of each cell line were used to calculate the VUAA1-normalized values for the rest of the plate, by dividing VOC response ∆F values by the average VUAA1 response ∆F value of the corresponding OR cell line. Each VOC-OR combination was measured three times as technical replicates. […] The average of these replicates were used as one ∆F and VUAA1-normalized ∆F in the following analysis.
(§4) In the next rows we tested the reference VOCs (or other VOCs known to activate the corresponding cell lines), in order to test if all cell lines are responsive. The remaining rows were used to test VOCs with unknown effect.
(§5) The recorded FMAX, F0, ∆F, VUAA1-normalized ∆F values, as well as the OR name, the name of the tested sample, and the final concentration for each well were copied into supplementary file Data summary.xlsx, that was used to summarize all the plates recorded. Here, the averages of the measurements were calculated for each receptor-VOC-concentration combination.

Drosophila OR98a = molecular target: T2, Drosophila OR98a (Drosophila melanogaster, UniProt Q9VAZ3); assay: Calcium ion fluorescence (GCaMP6) assay, OR98a stable HEK293 cell line; format: cell-based; settings: for DF norm AVERAGE OR98a: normalized fluorescence change, values below 0.05 threshold given as 0
T2 construct: expressed in transfected cells
T2 sequence (Q9VAZ3 1-397): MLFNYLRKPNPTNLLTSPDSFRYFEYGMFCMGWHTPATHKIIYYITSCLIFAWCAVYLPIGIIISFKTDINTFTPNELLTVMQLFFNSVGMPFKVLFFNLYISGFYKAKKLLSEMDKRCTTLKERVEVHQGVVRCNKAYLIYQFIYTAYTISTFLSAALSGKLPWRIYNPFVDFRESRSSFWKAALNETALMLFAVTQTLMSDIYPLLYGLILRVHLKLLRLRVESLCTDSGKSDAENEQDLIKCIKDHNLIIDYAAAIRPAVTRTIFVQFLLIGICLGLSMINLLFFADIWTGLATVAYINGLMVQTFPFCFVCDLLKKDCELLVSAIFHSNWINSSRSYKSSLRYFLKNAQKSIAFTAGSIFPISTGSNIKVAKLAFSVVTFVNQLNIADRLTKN
T2 sequence (Q9VNB5 1-486 partner): T1 sequence (Q9VNB5 1-486 partner)
Procedure: as §1, §2, §3, §4, §5

[1] = HEK293, read-out: OR13a Average response (VUAA1-normalized), 1 μM VOC, 50 μM VUAA1 = 1, responses not exceeding 0.05 considered 0
[2] = HEK293, read-out: OR13a Average response (VUAA1-normalized), 10 μM VOC, 50 μM VUAA1 = 1, responses not exceeding 0.05 considered 0
[3] = HEK293, read-out: OR13a Average response (VUAA1-normalized), 100 μM VOC, 50 μM VUAA1 = 1, responses not exceeding 0.05 considered 0
[4] = HEK293, read-out: OR13a response (VUAA1-normalized response), VOC concentration 1 μM
[5] = HEK293, read-out: OR13a response (VUAA1-normalized response), VOC concentration 10 μM
[6] = HEK293, read-out: OR13a response (VUAA1-normalized response), VOC concentration 100 μM
[7] = HEK293, read-out: Average response
[8] = HEK293, read-out: OR98a Average response (VUAA1-normalized)
[9] = HEK293, read-out: OR98a response (VUAA1-normalized response)

Structure (SMILES) | activation at 1 µM (Drosophila OR13a; [1]) [%] | activation at 10 µM (Drosophila OR13a; [2]) [%] | activation at 100 µM (Drosophila OR13a; [3]) [%] | activation at 1 µM (Drosophila OR13a; [4]) [%] | activation at 10 µM (Drosophila OR13a; [5]) [%] | activation at 100 µM (Drosophila OR13a; [6]) [%] | DF norm AVERAGE OR13a (Drosophila OR13a; concentration 1) | DF norm AVERAGE OR13a (Drosophila OR13a; concentration 10) | DF norm AVERAGE OR13a (Drosophila OR13a; concentration 100) | activation at 1 µM (Drosophila OR98a; [7]) [%] | activation at 10 µM (Drosophila OR98a; [7]) [%] | activation at 100 µM (Drosophila OR98a; [7]) [%] | activation at 1 µM (Drosophila OR98a; [8]) [%] | activation at 10 µM (Drosophila OR98a; [8]) [%] | activation at 1 µM (Drosophila OR98a; [9]) [%] | activation at 10 µM (Drosophila OR98a; [9]) [%] | activation at 100 µM (Drosophila OR98a; [9]) [%] | DF norm AVERAGE OR98a (Drosophila OR98a; concentration 1) | DF norm AVERAGE OR98a (Drosophila OR98a; concentration 10) | DF norm AVERAGE OR98a (Drosophila OR98a; concentration 100) | further results
CCCCCC(C)=O [2-heptanone] | 0 | 2.36 | 1.75 | 0 | 0 | 0 | 0 | 0 | 0 | 7 | 1.68 | 11 | 7 | 2 | 7 | 0 | 11 | 0.06738 | 0 | 0.1149 | activation at 100 µM (Drosophila OR98a; [8]): 11%
CCCCC(C)O (stereo not drawn) [2-hexanol] | 0 | 0 | 5 | 0 | 0 | 0 | 0 | 0 | 0 | 0 | 0 | 14 | 0 | 0 | 0 | 0 | 14 | 0 | 0 | 0.1401 | activation at 100 µM (Drosophila OR98a; [8]): 14%
CCCCC(C)=O [2-hexanone] | 6 | 0 | 0 | 6 | 0 | 0 | 0.05965 | 0 | 0 | 3 | 4.36 | 3.5 |  |  | 0 | 0 | 0 | 0 | 0 | 0 | 
CCCCCCCCC(CO)CCCCCC (stereo not drawn) [2-hexyl-1-decanol] | 7 | 0 | 0 | 7 | 0 | 0 | 0.07079 | 0 | 0 | 0 | 14 | 2 |  |  | 0 | 14 | 0 | 0 | 0.1367 | 0 | 
CC1=CCC2C(C1)C2(C)C (stereo not drawn) [3-carene] | 0 | 0 | 0 | 0 | 0 | 0 | 0 | 0 | 0 | 0 | 1.26 | 0 |  |  | 0 | 0 | 0 | 0 | 0 | 0 | 
CCCC(O)CC (stereo not drawn) [3-hexanol] | 5 | 4.43 | 1.88 | 0 | 0 | 0 | 0 | 0 | 0 | 0 | 19 | 1.15 |  |  | 0 | 19 | 0 | 0 | 0.194 | 0 | 
Cc1cccc(O)c1 [3-methylphenol] | 0 | 0 | 1.35 | 0 | 0 | 0 | 0 | 0 | 0 | 4.63 | 4.61 | 6 |  |  | 0 | 0 | 6 | 0 | 0 | 0.05828 | 
CCCCCC(O)CC (stereo not drawn) [3-octanol] | 0 | 0 | 12 | 0 | 0 | 12 | 0 | 0 | 0.1167 | 1.89 | 3.68 | 13 | 2 | 4 | 0 | 0 | 13 | 0 | 0 | 0.1274 | activation at 100 µM (Drosophila OR98a; [8]): 13%

Reference: article PMC10709440, “High-throughput ligand profile characterization in novel cell lines expressing seven heterologous insect olfactory receptors for the detection of volatile plant biomarkers” (Scientific Reports, 2023)
